Assay results from patent publication US10166218B2, “3-(1H-indol-2-yl)-1H-pyrazolo[3,4-C]pyridines and therapeutic uses thereof” (Samumed, LLC, priority 2015, dated 2019).

How the values were obtained:
[1] = tested on: primary human fibroblasts derived from IPF patients (LL29 cells) treated with TGF-β1; α-smooth muscle actin (αSMA); assay: Inhibition of the fibrotic process: αSMA staining in TGF-β1 treated primary human fibroblasts from IPF patients (LL29 cells); assay type: cell-based; details: Fibroblast, 96 h, TGF-β1 20 ng/mL, 4 days; for EC50: % cells positive for αSMA
Method in brief: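 EC50 values come from non-linear fits of the αSMA-positive percentage among SYTOX-excluded live cells, normalized to TGF-β1 plus DMSO controls, or appear as % inhibition at 10 μM when above 10 μM. Fibrosis was induced in IPF-derived LL29 fibroblasts by 20 ng/mL TGF-β1 over 4 days, with 1:2 compound dilutions from 10 μM.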

[2] = tested on: primary human mesenchymal stem cells (hMSCs); assay: Induction of chondrogenesis in primary human mesenchymal stem cells (chondrogenic nodules); assay type: cell-based; details: 144 h, 6 days; for Emax: nodules, relative to TGF-β3 (10 ng/mL) positive control, read-out: Max. Activity as % TGF-β3 activity; for EC50: concentration required to induce 50% levels of chondrogenesis of TGF-β3 positive control, read-out: Conc (nM) of 50% TGF-β3 activity
Procedure: Representative compounds were screened using primary human mesenchymal stem cells (hMSCs) to determine their ability to induce chondrogenesis (process by which cartilage is developed).
Primary human mesenchymal stem cells (hMSCs) were purchased from Lonza (Walkersville, Md.) and expanded in Mesenchymal Stem Cell Growth Media (Lonza). Cells between passage 3 and 6 were used for the experiments.
Each compound was dissolved in DMSO as a 10 mM stock and used to prepare compound source plates. Serial dilution (1:3, 6-point dose-response curves from 2700 nM to 10 nM) and compound transfer was performed using the ECHO 550 (Labcyte, Sunnyvale, Calif.) into 96-well clear bottom assay plates (Greiner Bio-One) with appropriate DMSO backfill for a final DMSO concentration of 0.03%. hMSCs were plated at 20,000 cells/well in 250 μL/well Incomplete Chondrogenic Induction Medium (Lonza; DMEM, dexamethasone, ascorbate, insulin-transferrin-selenium [ITS supplement], gentamycin-amphotericin [GA-1000], sodium pyruvate, proline and L-glutamine). TGF-β3 (10 ng/mL) was used as a positive control for differentiation while negative control wells were treated with 75 nL DMSO for normalization and calculating EC50 values. Cells were incubated at 37° C. and 5% CO2 for 6 days. To image chondrogenic nodules, the cells were fixed using 4% formaldehyde (Electron Microscopy Sciences), and stained with 2 μg/mL Rhodamine B (Sigma-Aldrich) and 20 μM Nile Red (Sigma-Aldrich) [Johnson K., et. al, A Stem Cell-Based Approach to Cartilage Repair, Science, (2012), 336(6082), 717-721]. The nodules imaged (4 images per well at 4× magnification) by excitation at 531 nm and emission at 625 nm and quantified using the CellInsight CX5 (Thermo Scientific). Number of nodules in each well was normalized to the average of 3 DMSO treated wells on the same plate using Excel (Microsoft Inc.). The normalized averages (fold change over DMSO) of 3 replicate wells for each compound concentration were calculated. Due to solubility limitations of some of the compounds, curve fitting was incomplete leading to inaccurate EC50 determinations.
Using TGF-β3 as a positive control, the concentration of representative compounds required to induce 50% levels of chondrogenesis is reported. In addition, the maximum activity of each compound and the respective dose that each compound reached maximum chondrogenesis activity is reported.

Row | SMILES | EC50 [1] [nM] | Emax [2] [%] | EC50 [2] [nM] | inhibition at 10 µM ([1]; αSMA, 10 μM, read-out: percent inhibition at 10 μM (given for EC50 of >10 μM)) [%]
1 | CN(C)CCNc1cc(F)cc(-c2cccc3[nH]c(-c4n[nH]c5cnc(-c6cncc(CN(C)C)c6)cc45)cc23)c1 [Compound 461, N^1-(3-(2-(5-(5-((Dimethylamino)methyl)pyridin-3-yl)-1H-pyrazolo[3,4-c]pyridin-3-yl)-1H-indol-4-yl)-5-fluorophenyl)-N^2,N^2-dimethylethane-1,2-diamine] | 1180 | 52 |  | 
2 | CN(C)CCNc1cc(F)cc(-c2cccc3[nH]c(-c4n[nH]c5cnc(-c6ccccn6)cc45)cc23)c1 [Compound 476, N^1-(3-Fluoro-5-(2-(5-(pyridin-2-yl)-1H-pyrazolo[3,4-c]pyridin-3-yl)-1H-indol-4-yl)phenyl)-N^2,N^2-dimethylethane-1,2-diamine] | 582 | 89 | 10 | 
3 | Cc1ccncc1-c1cc2c(-c3cc4c(-c5cc(F)cc(CNS(C)(=O)=O)c5)cccc4[nH]3)n[nH]c2cn1 [Compound 481, N-(3-Fluoro-5-(2-(5-(4-methylpyridin-3-yl)-1H-pyrazolo[3,4-c]pyridin-3-yl)-1H-indol-4-yl)benzyl)methanesulfonamide] | 712 | 152 | 900 | 
4 | CS(=O)(=O)NCc1cc(F)cc(-c2cccc3[nH]c(-c4n[nH]c5cnc(-c6cncnc6)cc45)cc23)c1 [Compound 503, N-(3-Fluoro-5-(2-(5-(pyrimidin-5-yl)-1H-pyrazolo[3,4-c]pyridin-3-yl)-1H-indol-4-yl)benzyl)methanesulfonamide] | > 10000 | 102 | 900 | 0
5 | CN(C)CCOc1cncc(-c2cc3c(-c4cc5c(-c6cccnc6)cccc5[nH]4)n[nH]c3cn2)c1 [Compound 591, N,N-Dimethyl-2-((5-(3-(4-(pyridin-3-yl)-1H-indol-2-yl)-1H-pyrazolo[3,4-c]pyridin-5-yl)pyridin-3-yl)oxy)ethan-1-amine] | 2190 | 36 |  | 
6 | Cn1cc(-c2cc3c(-c4cc5c(-c6ccncc6)cccc5[nH]4)n[nH]c3cn2)cn1 [Compound 600, 5-(1-Methyl-1H-pyrazol-4-yl)-3-(4-(pyridin-4-yl)-1H-indol-2-yl)-1H-pyrazolo[3,4-c]pyridine] | 13 | 138 | 300 | 
7 | O=C(CC1CCNCC1)Nc1cncc(-c2cc3c(-c4cc5c(-c6ccccn6)cccc5[nH]4)n[nH]c3cn2)c1 [Compound 621, 2-(Piperidin-4-yl)-N-(5-(3-(4-(pyridin-2-yl)-1H-indol-2-yl)-1H-pyrazolo[3,4-c]pyridin-5-yl)pyridin-3-yl)acetamide] | 3140 | 57 |  | 
8 | CN(C)CCNc1cc(F)cc(-c2cccc3[nH]c(-c4n[nH]c5cnc(-c6cncc(O)c6)cc45)cc23)c1 [Compound 817, 5-(3-(4-(3-((2-(Dimethylamino)ethyl)amino)-5-fluorophenyl)-1H-indol-2-yl)-1H-pyrazolo[3,4-c]pyridin-5-yl)pyridin-3-ol] | 519 | 66 | 10 | 
